Converted amounts (≈) assume the structure as drawn. Read-outs that look alike come from different tables or passages of the source.
What was measured:
[1] = test system: S. aureus SA-RN4220-pUL5054 (RN4220); test: MIC and checkerboard (FIC) assay
[2] = test system: S. aureus SA-ANT4′ (ANT4), resistant to fusidic acid; test: MIC and checkerboard (FIC) assay
[3] = test system: clinical community-associated (CA) and hospital-associated (HA) MRSA strains; test: MIC and combination tests, panel of clinical strains; settings: range over clinical CA and HA MRSA strains (Table 3)
[4] = test system: Human Umbilical Vein Endothelial Cells (HUVEC); test: XTT cytotoxicity testing; settings: 2-64 μg/ml, vs drug free control
[5] = test system: S. aureus SA-APH3′ (APH3), resistant to kanamycin; test: MIC and checkerboard (FIC) assay
MRSA SA-ST239 = test: MIC and checkerboard (FIC) assay; settings: Staphylococcus aureus, MRSA
[6] = test system: Panton-Valentine leukocidin positive CA-MRSA strain ST30; type: in vivo, Balb/c mice; settings: ST30
[7] = test system: cytokines production of human macrophages stimulated with PGN or SEB; type: cell-based
clinical MRSA ST239 = test: Mouse pneumonia model, ST239 (neutropenic mice); type: in vivo, Balb/c mice; settings: ST239; 48 h; 1 also died in control
[8] = test system: S. aureus ATCC25923 (methicillin sensitive); test: MIC and checkerboard (FIC) assay; settings: Staphylococcus aureus
[9] = test system: Human Mammary Epithelial Cell (HMEC); test: XTT cytotoxicity testing; type: cell-based; settings: 2-64 μg/ml, vs drug free control
Experimental: (§1) The plates were maintained in a 37° C. incubator.

[10] = test system: panel of laboratory MRSA strains; test: MIC and combination tests, panel of laboratory strains
[11] = test system: internalization of MRSA strain JE-2 by HaCat keratinocytes; test: Internalization of S. aureus by HaCaT keratinocytes; type: cell-based, Staphylococcus aureus
[12] = test system: adherence of MRSA strain JE-2 to HaCat keratinocytes; test: Bacterial adherence to HaCaT keratinocytes; type: cell-based, Staphylococcus aureus
[13] = test system: human peripheral blood mononuclear cells (PBMC); test: XTT cytotoxicity testing; type: cell-based; settings: 2-64 μg/ml, vs drug free control
Experimental: as §1
The cytotoxicity of kuraridin and its analogues were determined by the sodium 3′-[1-(phenylaminocarbonyl)-3,4-tetrazolium]-bis (4-methoxy-6-nitro) benzene sulfonic acid hydrate (XTT) assay.
Serial dilutions of the compounds ranging 2-64 μg/ml were incubated with PBMCs at 37° C. for 72 hrs.

[14] = test system: adherence of MRSA strain JE-2 to fibrinogen; test: Fibrinogen-binding adherence assay (crystal violet); type: cell-based, Staphylococcus aureus; settings: kuraridin at 1.0 μg/ml
[15] = test system: cytokines production of human PBMC stimulated with PGN or SEB; type: cell-based
[16] = test system: S. aureus SA-1199B (NorA efflux pump overexpressed); test: MIC and checkerboard (FIC) assay
[17] = test system: S. aureus SA-APH2″-AAC6′ (APH2), resistant to gentamicin; test: MIC and checkerboard (FIC) assay
panel of MRSA strains = settings: previous study (12); cited from earlier work
[18] = test system: bacterial aggregation of MRSA JE-2; test: Aggregation assay of MRSA JE-2; type: cell-based, Staphylococcus aureus; settings: kuraridin at 4 μg/ml
physchem = settings: aqueous with cosolvent or surfactant or cyclodextrin
[19] = Staphylococcus aureus, read-out: MIC 99.9
[20] = Staphylococcus aureus, read-out: MIC alone

## C=C(C)C(CC=C(C)C)Cc1c(O)cc(OC)c(C(=O)/C=C/c2ccc(O)cc2O)c1O (stereo not shown) [Kuraridin]
[1]; RN4220, Kuraridin with ECG
  FIC: 0.25
  MIC combine: 2 µg/mL
[1]; Staphylococcus aureus
  MIC90: 8 µg/mL
[1]; Staphylococcus aureus, read-out: Activity (MIC, μg/ml)
  MIC: 8 µg/mL
[1]; [19]
  MIC99: 8 µg/mL
[1]; [20]
  MIC: 8 µg/mL
[2]; ANT4, Kuraridin with ECG
  FIC: 0.25
  MIC combine: 2 µg/mL
[2]; Staphylococcus aureus
  MIC90: 4 µg/mL
[2]; [19]
  MIC99: 8 µg/mL
[2]; [20]
  MIC: 8 µg/mL
[3]
  MICs in kuraridin and ECG combined treatment: 1 to 4 µg/mL
[4]
  Cellular toxicity (XTT assay): not toxic
[5]; APH3, Kuraridin with ECG
  FIC: 0.25
  MIC combine: 2 µg/mL
[5]; Staphylococcus aureus
  MIC90: 8 µg/mL
[5]; [19]
  MIC99: 8 µg/mL
[5]; [20]
  MIC: 8 µg/mL
MRSA SA-ST239
  MIC90: 8 µg/mL
MRSA SA-ST239; read-out: MIC 99.9
  MIC99: 8 µg/mL
[6]; kuraridin 120 mg/kg, ECG 120 mg/kg, 48 h, control 9.24±0.15
  log CFU counts (left lung): 8.25±0.39 log CFU
[6]; kuraridin 120 mg/kg, ECG 120 mg/kg, control 30%
  survival rates: 50%
[6]; used alone at 60 and 120 mg/kg
  log CFU counts and survival rates: could not reduce the log CFU counts or improve the survival rates
[7]
  IFN-γ productions: could suppress
  IL-6 and IL-12 production: dose-dependently inhibited
  TNF-α production: suppressed
Clinical MRSA ST239
  mice died: 1 mouse
[8]; ATCC25923
  MIC90: 8 µg/mL
[8]; ATCC25923, read-out: MIC 99.9
  MIC99: 8 µg/mL
[9]
  Cellular toxicity (XTT assay): not toxic
[10]; Staphylococcus aureus, MRSA
  MIC99: 8 to 16 µg/mL
[10]; range over laboratory strains (Table 2)
  MICs in kuraridin and ECG combined treatment: 2 to 4 µg/mL
[11]; kuraridin 0.25 μg/ml
  percentage of internalized bacteria by HaCaT cells: 23.8±4.6%
[11]; kuraridin 0.5 μg/ml
  percentage of internalized bacteria by HaCaT cells: 15.8±2.0%
[12]; 2 μg/ml kuraridin (0.25×MIC)
  adherence of WT strain to HaCaT cells: abolished
[12]; kuraridin 0.25 μg/ml
  percentage of adherence of the bacteria: 28.4±3.2%
[12]; kuraridin 0.5 μg/ml
  percentage of adherence of the bacteria: 17.8±11.1%
[12]; kuraridin 1 μg/ml
  percentage of adherence of the bacteria: 7.6±3.7%
[13]
  Cellular toxicity (XTT assay): not toxic
[14]
  reduction in the adherence of the WT strain to fibrinogen: 100%
[15]
  IL-10 and IL-12 production: dose-dependently inhibited
[16]; 1199B, Kuraridin with ECG
  FIC: 0.25
  MIC combine: 4 µg/mL
[16]; Staphylococcus aureus
  MIC90: 16 µg/mL
[16]; [19]
  MIC99: 16 µg/mL
[16]; Staphylococcus aureus, read-out: MIC alone, 1199B, Kuraridin and ECG section
  MIC: 16 µg/mL
[17]; APH2, Kuraridin with ECG
  FIC: 0.25
  MIC combine: 2 µg/mL
[17]; Staphylococcus aureus
  MIC90: 8 µg/mL
[17]; [19]
  MIC99: 8 µg/mL
[17]; [20]
  MIC: 8 µg/mL
Panel of MRSA strains
  minimum inhibitory concentration (MIC): around 8 μg/ml
[18]
  aggregation lower than the mutant ΔSrtA: 3.7 folds
  reduction in bacterial aggregation as compared to the wild type without drug: 4.4 fold
physchem
  solubility: 20 mg/mL (≈ 45.6 mM)

— patent US11690810B2, “Combination treatment of bacterial infection” (The Chinese University of Hong Kong, priority 2018, dated 2023)
